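In this assay, cells in 96-well plates receive the compound at five concentrations for 48 hours. Endpoints are linearly interpolated between the surrounding concentrations. TGI marks complete inhibition of growth.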 A value given as a limit tells only on which side of the number the result lay.

One assay deals with NCI-H23 lung. Briefly: NCI-60 cell line screen, 48 h.
For `COC(=O)c1c2c(cc3c1CC1(C3)Cc3cc4c(c(C(=O)OC)c3C1)CCCC4)CCCC2`, the TGI was > 100 µM.

In the case of `O=C(/C=C/c1ccsc1)c1ccsc1`, the TGI was 54.8 µM.

The test system of another assay is MALME-3M melanoma. Briefly: NCI-60 cell line screen, 48 h.
With `CC1(C)[C@@H]2CC[C@@]1(C)[C@@H]1O[C@@H](O[C@@H](CN)c3cc(Cl)c(OCc4ccccc4)c(OCc4ccccc4)c3)C[C@H]21`, the TGI worked out at 0.342 µM.

For the compound `COc1cc(C2CC(C)(Nc3ccccc3)Oc3cc4c(cc32)OCO4)cc(OC)c1OC` (configuration not stated), the TGI is > 100 µM.

Consider `COC(=O)c1c2c(cc3c1CC1(C3)Cc3cc4c(c(C(=O)OC)c3C1)CCCC4)CCCC2`, for which the TGI is > 100 µM.

Compound `O=C(/C=C/c1ccsc1)c1ccsc1` yielded a TGI of 75.1 µM.

In a further assay the test system is HCT-116 colon. The assay can be described thus: NCI-60 cell line screen, 48 h.
As to `COc1cc(C2CC(C)(Nc3ccccc3)Oc3cc4c(cc32)OCO4)cc(OC)c1OC` (configuration not stated), the TGI is > 51.2 µM.

Turning to `COC(=O)c1c2c(cc3c1CC1(C3)Cc3cc4c(c(C(=O)OC)c3C1)CCCC4)CCCC2`, the TGI is > 100 µM.

As for `O=C(/C=C/c1ccsc1)c1ccsc1`, the TGI was 30.3 µM.

In a further assay the test system is RXF 393 renal. The assay can be described thus: NCI-60 cell line screen, 48 h.
Take `CC1(C)[C@@H]2CC[C@@]1(C)[C@@H]1O[C@@H](O[C@@H](CN)c3cc(Cl)c(OCc4ccccc4)c(OCc4ccccc4)c3)C[C@H]21`: the TGI stood at 0.288 µM.

Regarding `COc1cc(C2CC(C)(Nc3ccccc3)Oc3cc4c(cc32)OCO4)cc(OC)c1OC` (configuration not stated), the TGI was > 100 µM.

For `COC(=O)c1c2c(cc3c1CC1(C3)Cc3cc4c(c(C(=O)OC)c3C1)CCCC4)CCCC2`, the TGI is > 100 µM.

In another assay the test system is CAKI-1 renal. The assay can be described thus: NCI-60 cell line screen, 48 h.
Compound `CC1(C)[C@@H]2CC[C@@]1(C)[C@@H]1O[C@@H](O[C@@H](CN)c3cc(Cl)c(OCc4ccccc4)c(OCc4ccccc4)c3)C[C@H]21` registered a TGI of 0.301 µM.

Take `COc1cc(C2CC(C)(Nc3ccccc3)Oc3cc4c(cc32)OCO4)cc(OC)c1OC` (configuration not stated): the TGI was > 71.8 µM.

`O=C(/C=C/c1ccsc1)c1ccsc1` returned a TGI of 41.4 µM.

The next assay has as its system 786-0 renal. The assay can be described thus: NCI-60 cell line screen, 48 h.
Take `COc1cc(C2CC(C)(Nc3ccccc3)Oc3cc4c(cc32)OCO4)cc(OC)c1OC` (configuration not stated): the TGI was > 78.4 µM.

`COC(=O)c1c2c(cc3c1CC1(C3)Cc3cc4c(c(C(=O)OC)c3C1)CCCC4)CCCC2`: the TGI is > 100 µM.

`O=C(/C=C/c1ccsc1)c1ccsc1`: the TGI stood at 47.4 µM.

Another assay concerns SF-295 CNS. The assay can be described thus: NCI-60 cell line screen, 48 h.
The compound `COc1cc(C2CC(C)(Nc3ccccc3)Oc3cc4c(cc32)OCO4)cc(OC)c1OC` (configuration not stated) gave a TGI of 3.57 µM.

As for `COC(=O)c1c2c(cc3c1CC1(C3)Cc3cc4c(c(C(=O)OC)c3C1)CCCC4)CCCC2`, the TGI is > 100 µM.

As for `O=C(/C=C/c1ccsc1)c1ccsc1`, the TGI is > 100 µM.

Another assay has as its system SNB-19 CNS. The assay can be described thus: NCI-60 cell line screen, 48 h.
Turning to `COc1cc(C2CC(C)(Nc3ccccc3)Oc3cc4c(cc32)OCO4)cc(OC)c1OC` (configuration not stated), the TGI is > 100 µM.

`O=C(/C=C/c1ccsc1)c1ccsc1` had a TGI of 47.7 µM.

A further assay concerns T-47D breast. Briefly: NCI-60 cell line screen, 48 h.
In the case of `COC(=O)c1c2c(cc3c1CC1(C3)Cc3cc4c(c(C(=O)OC)c3C1)CCCC4)CCCC2`, the TGI is > 100 µM.

For `O=C(/C=C/c1ccsc1)c1ccsc1`, the TGI worked out at 92.2 µM.

In the next assay the test system is K-562 leukemia. The assay can be described thus: NCI-60 cell line screen, 48 h.
For `CC1(C)[C@@H]2CC[C@@]1(C)[C@@H]1O[C@@H](O[C@@H](CN)c3cc(Cl)c(OCc4ccccc4)c(OCc4ccccc4)c3)C[C@H]21`, the TGI was 0.478 µM.

Turning to `COc1cc(C2CC(C)(Nc3ccccc3)Oc3cc4c(cc32)OCO4)cc(OC)c1OC` (configuration not stated), the TGI was > 100 µM.

As for `COC(=O)c1c2c(cc3c1CC1(C3)Cc3cc4c(c(C(=O)OC)c3C1)CCCC4)CCCC2`, the TGI was > 100 µM.

Another assay relates to UACC-62 melanoma. Briefly: NCI-60 cell line screen, 48 h.
Turning to `COc1cc(C2CC(C)(Nc3ccccc3)Oc3cc4c(cc32)OCO4)cc(OC)c1OC` (configuration not stated), the TGI was > 100 µM.

In the case of `COC(=O)c1c2c(cc3c1CC1(C3)Cc3cc4c(c(C(=O)OC)c3C1)CCCC4)CCCC2`, the TGI was > 100 µM.

With `O=C(/C=C/c1ccsc1)c1ccsc1`, the TGI came to 89.9 µM.

A further assay relates to U251 CNS. The assay can be described thus: NCI-60 cell line screen, 48 h.
In the case of `CC1(C)[C@@H]2CC[C@@]1(C)[C@@H]1O[C@@H](O[C@@H](CN)c3cc(Cl)c(OCc4ccccc4)c(OCc4ccccc4)c3)C[C@H]21`, the TGI was 0.293 µM.

In turn, `COc1cc(C2CC(C)(Nc3ccccc3)Oc3cc4c(cc32)OCO4)cc(OC)c1OC` (configuration not stated) registered a TGI of 17.2 µM.

Turning to `COC(=O)c1c2c(cc3c1CC1(C3)Cc3cc4c(c(C(=O)OC)c3C1)CCCC4)CCCC2`, the TGI was > 100 µM.

For `O=C(/C=C/c1ccsc1)c1ccsc1`, the TGI was determined as 37.7 µM.

The test system of a further assay is SF-539 CNS. The assay can be described thus: NCI-60 cell line screen, 48 h.
With `COc1cc(C2CC(C)(Nc3ccccc3)Oc3cc4c(cc32)OCO4)cc(OC)c1OC` (configuration not stated), the TGI amounted to 0.477 µM.

As for `COC(=O)c1c2c(cc3c1CC1(C3)Cc3cc4c(c(C(=O)OC)c3C1)CCCC4)CCCC2`, the TGI was > 100 µM.

The compound `O=C(/C=C/c1ccsc1)c1ccsc1` displayed a TGI of 37.9 µM.

The next assay has as its system MDA-MB-231 breast. Briefly: NCI-60 cell line screen, 48 h.
In the case of `CC1(C)[C@@H]2CC[C@@]1(C)[C@@H]1O[C@@H](O[C@@H](CN)c3cc(Cl)c(OCc4ccccc4)c(OCc4ccccc4)c3)C[C@H]21`, the TGI was determined as 0.288 µM.

Take `COc1cc(C2CC(C)(Nc3ccccc3)Oc3cc4c(cc32)OCO4)cc(OC)c1OC` (configuration not stated): the TGI worked out at 4.34 µM.

On to `COC(=O)c1c2c(cc3c1CC1(C3)Cc3cc4c(c(C(=O)OC)c3C1)CCCC4)CCCC2`, for which the TGI was > 100 µM.

With `O=C(/C=C/c1ccsc1)c1ccsc1`, the TGI was 42.4 µM.

For the next assay, the system named is NCI-H522 lung. The assay can be described thus: NCI-60 cell line screen, 48 h.
The compound `CC1(C)[C@@H]2CC[C@@]1(C)[C@@H]1O[C@@H](O[C@@H](CN)c3cc(Cl)c(OCc4ccccc4)c(OCc4ccccc4)c3)C[C@H]21` yielded a TGI of 0.357 µM.

For the compound `COc1cc(C2CC(C)(Nc3ccccc3)Oc3cc4c(cc32)OCO4)cc(OC)c1OC` (configuration not stated), the TGI stood at 10.7 µM.

As for `COC(=O)c1c2c(cc3c1CC1(C3)Cc3cc4c(c(C(=O)OC)c3C1)CCCC4)CCCC2`, the TGI was > 100 µM.

The subject of another assay is COLO 205 colon. The assay can be described thus: NCI-60 cell line screen, 48 h.
`COc1cc(C2CC(C)(Nc3ccccc3)Oc3cc4c(cc32)OCO4)cc(OC)c1OC` (configuration not stated) showed a TGI of 5.27 µM.

Consider `COC(=O)c1c2c(cc3c1CC1(C3)Cc3cc4c(c(C(=O)OC)c3C1)CCCC4)CCCC2`, for which the TGI was > 100 µM.

The record behind these values is PubChem BioAssay (NCI).
